Reference: patent publication US20260217765A1, “NOVEL ANTIMICROBIAL PEPTIDE DESIGNED FROM DUCK-DERIVED ANTIMICROBIAL PEPTIDE ANDUSE THEREOF” (INDUSTRY-ACADEMIC COOPERATION FOUNDATION, CHOSUN UNIVERSITY, priority 2023, published 2026)
Peptide text beside a SMILES is read from it.

Tested on: Acinetobacter baumannii isolate 10
Experiment: In vivo antimicrobial activity, intranasal lung infection, H&E staining
Parameters: species or system BALB/c mice
Settings: mice intranasally infected with A. baumannii isolate 10, peptide intranasal, day 3
Method: Among the peptides prepared in <Example 1>, dCATH-A7 was selected to evaluate in vivo antimicrobial activity.
Among the antibiotic-resistant strains, Acinetobacter baumannii isolate 10 was selected for the experiment. The bacteria were washed three times with PBS buffer prior to use. After a one-week acclimation period, BALB/c mice (6 weeks old) were intranasally infected with 20 μL of a 1×10^9 CFU/mL bacterial suspension. Following infection, the peptide was prepared at a concentration of 5 mg/mL and administered intranasally. On day 3, lung tissue samples were collected and subjected to hematoxylin and eosin (H&E) staining to assess tissue damage.

CC[C@H](C)[C@H](NC(=O)[C@H](C)NC(=O)[C@H](CCCCN)NC(=O)[C@H](CCCCN)NC(=O)[C@@H](NC(=O)[C@H](CC(C)C)NC(=O)[C@H](CCC(N)=O)NC(=O)[C@H](C)NC(=O)[C@H](C)NC(=O)[C@H](CCCNC(=N)N)NC(=O)[C@@H](N)CCCCN)C(C)C)C(=O)N[C@@H](CCCCN)C(=O)N[C@@H](CCCCN)C(=O)N[C@@H](Cc1ccc(O)cc1)C(=O)N[C@@H](CCCNC(=N)N)C(=O)N[C@@H](C)C(=O)N[C@@H](Cc1c[nH]c2ccccc12)C(=O)N[C@@H](CCCCN)C(N)=O [dCATH-A7, KRAAQLVKKAIKKYRAWK] (H-KRAAQLVKKAIKKYRAWK-NH2; N-terminus assumed)
lung tissue damage (H&E staining): minimal fibrosis and overall reduced tissue damage
